Measured values reported in patent US12162840B2, “Herbicidal compositions” (SYNGENTA PARTICIPATIONS AG, priority 2018, dated 2024).

Assays:
Type in all cases: in vivo
[1] = tested on: warm season plant species; experiment: B2 Post-emergence efficacy Test 2, warm season plant species; details: 15 days after application, 0-100 scale, 0=no damage, 100=total kill; for Herbicidal activity, ABUTH: Abutilon theophrasti; for Herbicidal activity, AMARE: Amaranthus retroflexus; for Herbicidal activity, BIDPI: Bidens pilosa; for Herbicidal activity, BRAPL: Brachiaria plantaginea; for Herbicidal activity, DIGSA: Digitaria sanguinalis; for Herbicidal activity, ECHCG: Echinochloa crus galli; for Herbicidal activity, ELEIN: Eleisine indica; for Herbicidal activity, EPHHL: Euphorbia hetrophylla; for Herbicidal activity, GLXMA: Glycine max; for Herbicidal activity, IPOHE: Ipomoea hederacea; for Herbicidal activity, ORYSA: Orysa sativa; for Herbicidal activity, PANMI: Panicum miliaceum; for Herbicidal activity, SETFA: Setaria faberi; for Herbicidal activity, SIDSP: Sida spinosa; for Herbicidal activity, SORVU: Sorghum bicolour; for Herbicidal activity, XANST: Xanthium strumarium; for Herbicidal activity, ZEAMX: Zea mays
Procedure: Seeds of a variety of test species (see Table B1) were sown in standard soil in pots. After cultivation for 12 days (post-emergence) under controlled conditions in a glasshouse (at 24/18° C. or 20/16° C., at day/night; 16 hours light; 65% humidity), the plants were sprayed with an aqueous spray solution derived from the formulation of the technical active ingredient dissolved in IF50 (see Table B2 for composition) and adjuvant (Genapol XO80) was added to the spray solution at a rate of 0.2% v/v. [table] [table] After application, the test plants were grown in a glasshouse under controlled conditions (as above) and watered twice daily. Herbicidal activity was evaluated 15 days after application on a 0-100 scale. The results, where 0=no damage to test plant and 100=total kill of test plant are shown below in Tables 6 to 9.

[2] = tested on: Echinochloa crus-galli (ECHCG); experiment: B1 Post-emergence efficacy Test 1; details: post-emergence application, 1000 g/ha, evaluated after 13 days
Method in brief: (§1)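 Post-emergence spray, 1000 g/ha, acetone/water 50:50 + 0.5% Tween 20, on 8-day-old potted plants. Glasshouse 24/16 °C, 14 h light, 65% RH, watered twice daily. Damage read at 13 d, scored 1–5 (1=0-19%, 5=80-100%).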

[3] = tested on: Amaranthus retoflexus (AMARE); experiment: B1 Post-emergence efficacy Test 1; details: post-emergence application, 1000 g/ha, evaluated after 13 days
Method in brief: as §1

Setaria faberi (SETFA) = experiment: B1 Post-emergence efficacy Test 1; details: post-emergence application, 1000 g/ha, evaluated after 13 days
Method in brief: as §1

[4] = tested on: Ipomoea hederacea (IPOHE); experiment: B1 Post-emergence efficacy Test 1; details: post-emergence application, 1000 g/ha, evaluated after 13 days
Method in brief: as §1

Solanum nigrum (SOLNI) = experiment: B1 Post-emergence efficacy Test 1; details: post-emergence application, 1000 g/ha, evaluated after 13 days
Method in brief: as §1

Lolium perenne (LOLPE) = experiment: B1 Post-emergence efficacy Test 1; details: post-emergence application, 1000 g/ha, evaluated after 13 days
Method in brief: as §1

With `Cc1nn(C)c(=O)c(-c2c(F)ccc(Cl)c2CCc2ccc(F)cc2)c1OC(=O)C(C)C` [Compound 1.125] the “Herbicidal activity, ABUTH” value ([1]; 15 g/Ha) was 80, the “Herbicidal activity, ABUTH” value ([1]; 30 g/Ha) was 90 and the “Herbicidal activity, ABUTH” value ([1]; 60 g/Ha) was 90. The “Herbicidal activity, ABUTH” value ([1]; 125 g/Ha) was 90, the “Herbicidal activity, ABUTH” value ([1]; 250 g/Ha) was 100 and the “Herbicidal activity, ABUTH” value ([1]; 500 g/Ha) was 100. The “Herbicidal activity, AMARE” value ([1]; 15 g/Ha) was 80, the “Herbicidal activity, AMARE” value ([1]; 30 g/Ha) was 90 and the “Herbicidal activity, AMARE” value ([1]; 60 g/Ha) was 90. For the same molecule, the “Herbicidal activity, AMARE” value ([1]; 125 g/Ha) was 100, the “Herbicidal activity, AMARE” value ([1]; 250 g/Ha) was 100 and the “Herbicidal activity, AMARE” value ([1]; 500 g/Ha) was 100. The “Herbicidal activity, BIDPI” value ([1]; 15 g/Ha) was 60, the “Herbicidal activity, BIDPI” value ([1]; 30 g/Ha) was 60 and the “Herbicidal activity, BIDPI” value ([1]; 60 g/Ha) was 70. The “Herbicidal activity, BIDPI” value ([1]; 125 g/Ha) was 70, the “Herbicidal activity, BIDPI” value ([1]; 250 g/Ha) was 80 and the “Herbicidal activity, BIDPI” value ([1]; 500 g/Ha) was 100. The “Herbicidal activity, BRAPL” value ([1]; 15 g/Ha) was 80, the “Herbicidal activity, BRAPL” value ([1]; 60 g/Ha) was 80 and the “Herbicidal activity, BRAPL” value ([1]; 125 g/Ha) was 80. For the same molecule, the “Herbicidal activity, BRAPL” value ([1]; 250 g/Ha) was 70, the “Herbicidal activity, BRAPL” value ([1]; 500 g/Ha) was 80 and the “Herbicidal activity, DIGSA” value ([1]; 15 g/Ha) was 0. For the same molecule, the “Herbicidal activity, DIGSA” value ([1]; 30 g/Ha) was 0, the “Herbicidal activity, DIGSA” value ([1]; 60 g/Ha) was 0 and the “Herbicidal activity, DIGSA” value ([1]; 125 g/Ha) was 10. The “Herbicidal activity, DIGSA” value ([1]; 250 g/Ha) was 30, the “Herbicidal activity, DIGSA” value ([1]; 500 g/Ha) was 70 and the “Herbicidal activity, ECHCG” value ([1]; 15 g/Ha) was 70. For the same molecule, the “Herbicidal activity, ECHCG” value ([1]; 30 g/Ha) was 80, the “Herbicidal activity, ECHCG” value ([1]; 60 g/Ha) was 80 and the “Herbicidal activity, ECHCG” value ([1]; 125 g/Ha) was 80. The “Herbicidal activity, ECHCG” value ([1]; 250 g/Ha) was 90, the “Herbicidal activity, ECHCG” value ([1]; 500 g/Ha) was 100 and the “Herbicidal activity, ELEIN” value ([1]; 15 g/Ha) was 40. For the same molecule, the “Herbicidal activity, ELEIN” value ([1]; 30 g/Ha) was 40, the “Herbicidal activity, ELEIN” value ([1]; 60 g/Ha) was 70 and the “Herbicidal activity, ELEIN” value ([1]; 125 g/Ha) was 70. The “Herbicidal activity, ELEIN” value ([1]; 250 g/Ha) was 80, the “Herbicidal activity, ELEIN” value ([1]; 500 g/Ha) was 80 and the “Herbicidal activity, EPHHL” value ([1]; 15 g/Ha) was 90. The “Herbicidal activity, EPHHL” value ([1]; 30 g/Ha) was 90, the “Herbicidal activity, EPHHL” value ([1]; 60 g/Ha) was 100 and the “Herbicidal activity, EPHHL” value ([1]; 125 g/Ha) was 100. For the same molecule, the “Herbicidal activity, EPHHL” value ([1]; 250 g/Ha) was 100, the “Herbicidal activity, EPHHL” value ([1]; 500 g/Ha) was 100 and the “Herbicidal activity, GLXMA” value ([1]; 15 g/Ha) was 40. For the same molecule, the “Herbicidal activity, GLXMA” value ([1]; 30 g/Ha) was 70, the “Herbicidal activity, GLXMA” value ([1]; 60 g/Ha) was 70 and the “Herbicidal activity, GLXMA” value ([1]; 250 g/Ha) was 90. The “Herbicidal activity, GLXMA” value ([1]; 500 g/Ha) was 90, the “Herbicidal activity, IPOHE” value ([1]; 15 g/Ha) was 90 and the “Herbicidal activity, IPOHE” value ([1]; 30 g/Ha) was 100. The “Herbicidal activity, IPOHE” value ([1]; 60 g/Ha) was 100, the “Herbicidal activity, IPOHE” value ([1]; 125 g/Ha) was 100 and the “Herbicidal activity, IPOHE” value ([1]; 250 g/Ha) was 100. For the same molecule, the “Herbicidal activity, IPOHE” value ([1]; 500 g/Ha) was 100, the “Herbicidal activity, ORYSA” value ([1]; 15 g/Ha) was 0 and the “Herbicidal activity, ORYSA” value ([1]; 30 g/Ha) was 0. The “Herbicidal activity, ORYSA” value ([1]; 60 g/Ha) was 0, the “Herbicidal activity, ORYSA” value ([1]; 125 g/Ha) was 0 and the “Herbicidal activity, ORYSA” value ([1]; 250 g/Ha) was 0. For the same molecule, the “Herbicidal activity, ORYSA” value ([1]; 500 g/Ha) was 0, the “Herbicidal activity, PANMI” value ([1]; 15 g/Ha) was 20 and the “Herbicidal activity, PANMI” value ([1]; 30 g/Ha) was 30. For the same molecule, the “Herbicidal activity, PANMI” value ([1]; 60 g/Ha) was 50, the “Herbicidal activity, PANMI” value ([1]; 125 g/Ha) was 50 and the “Herbicidal activity, PANMI” value ([1]; 250 g/Ha) was 70. For the same molecule, the “Herbicidal activity, PANMI” value ([1]; 500 g/Ha) was 80, the “Herbicidal activity, SETFA” value ([1]; 15 g/Ha) was 0 and the “Herbicidal activity, SETFA” value ([1]; 30 g/Ha) was 10. The “Herbicidal activity, SETFA” value ([1]; 60 g/Ha) was 20, the “Herbicidal activity, SETFA” value ([1]; 125 g/Ha) was 20 and the “Herbicidal activity, SETFA” value ([1]; 250 g/Ha) was 20. For the same molecule, the “Herbicidal activity, SETFA” value ([1]; 500 g/Ha) was 100, the “Herbicidal activity, SIDSP” value ([1]; 60 g/Ha) was 80 and the “Herbicidal activity, SIDSP” value ([1]; 125 g/Ha) was 90. The “Herbicidal activity, SIDSP” value ([1]; 250 g/Ha) was 90, the “Herbicidal activity, SIDSP” value ([1]; 500 g/Ha) was 100 and the “Herbicidal activity, SORVU” value ([1]; 15 g/Ha) was 0. The “Herbicidal activity, SORVU” value ([1]; 30 g/Ha) was 50, the “Herbicidal activity, SORVU” value ([1]; 60 g/Ha) was 50 and the “Herbicidal activity, SORVU” value ([1]; 125 g/Ha) was 70. The “Herbicidal activity, SORVU” value ([1]; 250 g/Ha) was 80, the “Herbicidal activity, SORVU” value ([1]; 500 g/Ha) was 90 and the “Herbicidal activity, XANST” value ([1]; 30 g/Ha) was 90. The “Herbicidal activity, XANST” value ([1]; 60 g/Ha) was 90, the “Herbicidal activity, XANST” value ([1]; 125 g/Ha) was 90 and the “Herbicidal activity, XANST” value ([1]; 250 g/Ha) was 90. For the same molecule, the “Herbicidal activity, XANST” value ([1]; 500 g/Ha) was 100, the “Herbicidal activity, ZEAMX” value ([1]; 15 g/Ha) was 0 and the “Herbicidal activity, ZEAMX” value ([1]; 30 g/Ha) was 20. For the same molecule, the “Herbicidal activity, ZEAMX” value ([1]; 60 g/Ha) was 30, the “Herbicidal activity, ZEAMX” value ([1]; 125 g/Ha) was 20 and the “Herbicidal activity, ZEAMX” value ([1]; 250 g/Ha) was 40. For the same molecule, the “Herbicidal activity, ZEAMX” value ([1]; 500 g/Ha) was 70, the “percentage damage caused to the plant, five point scale, ECHCG” value [2] was 5 (5=80-100%) and the “percentage damage caused to the plant, five point scale, AMARE” value [3] was 5 (5=80-100%). The “percentage damage caused to the plant, five point scale, SETFA” value (Setaria faberi (SETFA)) was 5 (5=80-100%), the “percentage damage caused to the plant, five point scale, IPOHE” value [4] was 5 (5=80-100%) and the “percentage damage caused to the plant, five point scale, SOLNI” value (Solanum nigrum (SOLNI)) was 5 (5=80-100%). For the same molecule, the “percentage damage caused to the plant, five point scale, LOLPE” value (Lolium perenne (LOLPE)) was 5 (5=80-100%).
